Read-outs that look alike come from different tables or passages of the source.
Experiments:
[1] = molecular target: T1, binding of His-XIAP(BIR2)-avi fusion protein to GST-RIPK2 fusion protein (RIPK2/XIAP) (Homo sapiens, UniProt O43353); assay: RIPK2-XIAP binding competition PPI assay (TR-FRET); details: RIPK2/XIAP binding competition PPI assay; for Emax: read-out: PPI Amax bin; for IC50: read-out: PPI IC50 bin
T1 construct: made in house; host or cells: baculovirus infected Sf9 cells
Description: The ability of selected compounds of Formula (I) to inhibit the binding of an His-XIAP(BIR2)-avi fusion protein to a GST-RIPK2 fusion protein was quantified employing the TR-FRET-based competition assay as described in the following paragraphs.
Recombinant fusion protein of N-terminal Glutathione-S-Transferase (GST) and a fragment of human RIPK2 (amino acids 1-310 of accession number 043353), expressed in baculovirus infected Sf9 cells, purified via glutathione affinity chromatography, was used as GST-RIPK2 fusion protein. Recombinant fusion protein of N-terminal 6×Histidine (His), a fragment of human XIAP (amino acids 152-231 of accession number P98170), and C-terminal avi tag, expressed in baculovirus infected Sf9 cells, purified via Nickel NTA affinity chromatography, was used as the His-XIAP(BIR2)-avi fusion protein.
For the assay, a working solution of 1 nM GST-RIPK2, 25 nM His-XIAP(BIR2)-avi, 6 nM Anti-His-XL665 […] (Revvity Catalogue No. 61HISXLB), and 0.5 nM Anti-GST-Tb (Revvity Catalogue No. 61GSTTLB) in 25 mM Tris-HCl 7.5, 0.5 mM ethylene glycol-bis(2-aminoethylether)-N,N,N′,N′-tetraacetic acid (EGTA), 10 mM magnesium chloride (MgCl2), 2.5 mM dithiothreitol (DTT), 0.01% (w/v) bovine serum albumin (BSA), 0.005% (w/v) Pluronic F-127 (Sigma), 0.5 mM sodium ortho-vanadate, 5 mM β-Glycerophosphate disodium salt hydrate (BGP) was prepared. 50 nL of a 100-fold concentrated solution of each test compound in DMSO was dispensed via acoustic dispensing into a white low volume 384-well microtiter plate (Perkin Elmer Catalogue No. 6008280). Subsequently, 5 μL of the assay working solution were added.
The resulting mixture was incubated 120 min at 23° C. Subsequently, the amount of complex formed by the GST-RIPK2, XIAP(BIR2)-avi, Anti-His-XL665, and Anti-GST-Tb was evaluated by measurement of the resonance energy transfer from the Tb-cryptate to the XL665. Therefore, the fluorescence emissions at 520 nm and 665 nm after excitation at 337 nm were measured in a TR-FRET reader, e.g. a Pherastar FS (BMG Labtechnologies, Offenburg, Germany) or an Envision (PerkinElmer). The ratio of the emissions at 665 nm and at 520 nm was taken as the measure of the amount of the complex. The data were normalized (assay reaction without inhibitor=0% activity, 50 nM of GSK583=−100% activity).
For the RIPK2/XIAP binding competition PPI assay Amax values, “A” denotes an Amax of ≥80%; “B” denotes an Amax of 80%>B≥55; “C” denotes an Amax of 55%>C>30; and “D” denotes an Amax of ≤30%.

[2] = system: NF-κB pathway (SEAP) in THP1-Dual cells; assay: THP-1 Dual cell SEAP assay (L18-MDP stimulated); format: cell-based; details: read-out: NF-κB THP1 IC50 bin
Protocol: THP1-Dual™ cells (InvivoGen Cat #thpd-nfis) allow simultaneous assessment of the NF-κB pathway, by monitoring the activity of secreted embryonic alkaline phosphatase (SEAP) as well as the IRF pathway, by assessing the activity of a secreted luciferase (Lucia). Cells were cultured according to manufacturers' recommendations. For the assay, cell concentration was adjusted to 7.14×10^5 cells/mL in assay media (RPMI 1640, 2 mM L-Glutamine, 25 mM HEPES, 10% fetal bovine serum (heat-inactivated for 30 min at 56° C.), Pen-Strep (100 U/mL)) and 35 µL of cell suspension (˜25,000 cells) per well were added to a flat bottom 384-well plate (white opaque). Plate was centrifuged at 300 g for 2 min, compounds were added in serial dilution series according to the plate layout (volumes ˜500 nL-0.0152 nL) and plate was incubated at 37° C. in 5% CO2 for 30 min. Using assay media, a L18-MDP stock solution, that results in a final concentration of 10 ng/mL L18-MDP in each well when adding 15 μL to each well, was prepared. 15 μL of L18-MDP stock solution was added to each well, while 15 μL of assay media was added to the negative control wells. Plates were subsequently incubated at 37° C. in 5% CO2 overnight (20-24 h).
For the SEAP assay: without disturbing the cells at the bottom of the well, 15 μL supernatant was transferred to a clear 384-well flat bottom plate and 35 μL QUANTI-Blue Solution per well was added. Following a 2 h incubation at 37° C., the optical density (OD) was measured at 620-655 nm using a microplate reader (PheraStar FS microplate reader with protocol for OD 620-655 nm).
Values of media-only wells were subtracted and % inhibition for each compound concentration relative to the DMSO/L18-MDP-treated controls was calculated. Inhibition values+/−SD were fitted by non-linear regression using Prism software (GraphPad PRISM Software) to calculate IC50 values.

T1 sequence (O43353 1-310 limits assumed): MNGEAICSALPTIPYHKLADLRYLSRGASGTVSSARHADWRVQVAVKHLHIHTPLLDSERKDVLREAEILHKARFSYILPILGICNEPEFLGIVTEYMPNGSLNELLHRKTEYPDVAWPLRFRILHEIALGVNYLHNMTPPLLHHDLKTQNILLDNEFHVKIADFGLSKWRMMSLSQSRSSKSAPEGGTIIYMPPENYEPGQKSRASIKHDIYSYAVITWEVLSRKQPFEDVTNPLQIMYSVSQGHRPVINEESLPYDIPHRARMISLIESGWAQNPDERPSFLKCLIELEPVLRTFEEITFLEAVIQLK

Row | Compound | Emax ([1]; Amax) [%] | IC50 [1] [nM] | IC50 ([2]; Homo sapiens, THP1-Dual) [nM] | PPI Amax bin ([1]; Amax) | IC50 [2] [nM]
1 | COc1cc(NS(=O)(=O)c2cnn(C)c2)cc(-c2cnc3cc(OC)c(S(=O)(=O)C(C)(C)C)cn23)c1 [Example 285, N-(3-(6-(tert-butylsulfonyl)-7-methoxyimidazo[1,2-a]pyridin-3-yl)-5-methoxyphenyl)-1-methyl-1H-pyrazole-4-sulfonamide] | > 80 | < 1 | < 50 | – | –
2 | CCOc1cc2ncc(-c3cc(F)c(OC)c(NS(=O)(=O)c4cnn(C)c4)c3)n2cc1S(=O)(=O)C(C)C [Example 138, N-(5-(7-ethoxy-6-(isopropylsulfonyl)imidazo[1,2-a]pyridin-3-yl)-3-fluoro-2-methoxyphenyl)-1-methyl-1H-pyrazole-4-sulfonamide] | > 80 | < 1 | < 50 | – | –
3 | CC(F)(CO)COc1cc2ncc(-c3cc(F)c(N)nc3F)n2cc1S(=O)(=O)C(C)(C)C (single isomer, unassigned) [Example 260] | > 80 | 1 to 2.5 | 50 to 250 | – | –
4 | COc1cc2ncc(-c3cc(NS(=O)(=O)c4cnn(C)c4)c(OC)c(OC)c3)n2cc1N1CC(C)CC1=O (single isomer, unassigned) [Example 275] | – | 1 to 2.5 | – | A (an Amax of ≥80%) | 50 to 250
5 | COc1cc2ncc(-c3cc(F)c(OC)c(NC(C)c4cnn(C)c4)c3)n2cc1S(=O)(=O)C(C)(C)C (single isomer, unassigned) [Example 302] | > 80 | < 1 | – | – | < 50
6 | COc1cc2ncc(-c3cc(Cl)c(OC)c(NS(=O)(=O)c4cnn(C)c4)c3)n2cc1S(=O)(=O)C(C)(C)C [Example 283, N-(5-(6-(tert-butylsulfonyl)-7-methoxyimidazo[1,2-a]pyridin-3-yl)-3-chloro-2-methoxyphenyl)-1-methyl-1H-pyrazole-4-sulfonamide] | > 80 | < 1 | < 50 | – | –
7 | COc1cc2ncc(-c3cc(NS(=O)(=O)c4cnn(C)c4)c(OC)c(OC)c3)n2cc1N1CCCC1=O [Example 273, N-(2,3-dimethoxy-5-(7-methoxy-6-(2-oxopyrrolidin-1-yl)imidazo[1,2-a]pyridin-3-yl)phenyl)-1-methyl-1H-pyrazole-4-sulfonamide] | > 80 | 1 to 2.5 | 250 to 1000 | – | –
8 | COc1cc2ncc(-c3cc(NS(=O)(=O)c4cnn(C)c4)c(OC)c(OC)c3)n2cc1N1CC2(COC2)CC1=O [Example 271, N-(2,3-dimethoxy-5-(7-methoxy-6-(7-oxo-2-oxa-6-azaspiro[3.4]octan-6-yl)imidazo[1,2-a]pyridin-3-yl)phenyl)-1-methyl-1H-pyrazole-4-sulfonamide] | > 80 | 2.5 to 20 | > 1000 | – | –
9 | COc1cc2ncc(-c3cc(F)c(OC)c(NCc4cnn(C)c4)c3)n2cc1S(=O)(=O)C(C)(C)C [Example 301, 5-(6-(tert-butylsulfonyl)-7-methoxyimidazo[1,2-a]pyridin-3-yl)-3-fluoro-2-methoxy-N-((1-methyl-1H-pyrazol-4-yl)methyl)aniline] | 55 to 80 | < 1 | 50 to 250 | – | –
10 | COc1cc2ncc(-c3cc(F)c(OC)c(NS(=O)(=O)c4cc(C)ns4)c3)n2cc1S(=O)(=O)C(C)(C)C [Example 289, N-(5-(6-(tert-butylsulfonyl)-7-methoxyimidazo[1,2-a]pyridin-3-yl)-3-fluoro-2-methoxyphenyl)-3-methylisothiazole-5-sulfonamide] | 30 to 55 | < 1 | 50 to 250 | – | –
11 | C[C@H](O)COc1cc2ncc(-c3ccc(N)nc3F)n2cc1S(=O)(=O)C(C)(C)C [Example 267, (S)-1-((3-(6-amino-2-fluoropyridin-3-yl)-6-(tert-butylsulfonyl)imidazo [1,2-a]pyridin-7-yl)oxy)propan-2-ol] | > 80 | 2.5 to 20 | > 1000 | – | –
12 | COc1cc2ncc(-c3cc(F)c(OC)c(NS(=O)(=O)c4csc(C)n4)c3)n2cc1S(=O)(=O)C(C)(C)C [Example 291, N-(5-(6-(tert-butylsulfonyl)-7-methoxyimidazo[1,2-a]pyridin-3-yl)-3-fluoro-2-methoxyphenyl)-2-methylthiazole-4-sulfonamide] | 55 to 80 | < 1 | < 50 | – | –
13 | CC(F)(CO)COc1cc2ncc(-c3cc(F)c(N)nc3F)n2cc1S(=O)(=O)C(C)(C)C (single isomer, unassigned) [Example 261] | – | 1 to 2.5 | – | – | 50 to 250
14 | COc1cc2ncc(-c3cc(F)c(OC)c(NS(=O)(=O)c4cnc(C)s4)c3)n2cc1S(=O)(=O)C(C)(C)C [Example 287, N-(5-(6-(tert-butylsulfonyl)-7-methoxyimidazo[1,2-a]pyridin-3-yl)-3-fluoro-2-methoxyphenyl)-2-methylthiazole-5-sulfonamide] | 55 to 80 | < 1 | 50 to 250 | – | –
15 | CC(C)(C)S(=O)(=O)c1cn2c(-c3cc(F)c(N)nc3F)cnc2cc1NCCO [Example 272, 2-((3-(6-amino-2,5-difluoropyridin-3-yl)-6-(tert-butylsulfonyl)imidazo [1,2-a]pyridin-7-yl)amino)ethan-1-ol] | > 80 | 1 to 2.5 | 50 to 250 | – | –
16 | C[C@H](O)COc1cc2ncc(-c3cc4cc[nH]c4nc3F)n2cc1S(=O)(=O)C(C)(C)C [Example 268, (S)-1-((6-(tert-butylsulfonyl)-3-(6-fluoro-1H-pyrrolo[2,3-b]pyridin-5-yl)imidazo[1,2-a]pyridin-7-yl)oxy)propan-2-ol] | > 80 | < 1 | < 50 | – | –
17 | COc1cc2ncc(-c3cc(F)c(OC)c(NS(=O)(=O)c4cc(C)sn4)c3)n2cc1S(=O)(=O)C(C)(C)C [Example 292, N-(5-(6-(tert-butylsulfonyl)-7-methoxyimidazo[1,2-a]pyridin-3-yl)-3-fluoro-2-methoxyphenyl)-5-methylisothiazole-3-sulfonamide] | 30 to 55 | < 1 | 50 to 250 | – | –
18 | COc1ccc(-c2cnc3cc(OC)c(S(=O)(=O)C(C)(C)C)cn23)cc1NS(=O)(=O)c1cnn(C)c1 [Example 282, N-(5-(6-(tert-butylsulfonyl)-7-methoxyimidazo[1,2-a]pyridin-3-yl)-2-methoxyphenyl)-1-methyl-1H-pyrazole-4-sulfonamide] | > 80 | < 1 | < 50 | – | –

Source: US20260137706A1, “METHODS OF TREATING INFLAMMATORY DISEASES” (INTERLINE THERAPEUTICS, INC., priority 2023, published 2026)
